In PubChem BioAssay (NCI):
Several values for one entry are separate records, joined by “and”; a condition that tells them apart may be missing. Equal entries are not always repeated.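 Tested at 5 concentrations; 48 h exposure; 96-well plates; endpoints linearly interpolated, else capped at highest concentration. At the GI50, growth is halved. TGI denotes the concentration required for complete inhibition of growth.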

Tests used:
Assay in all cases: NCI-60 cell line screen, 48 h
[1] = test system: SK-OV-3 ovarian
[2] = test system: SN12C renal
[3] = test system: NCI-H23 lung
[4] = test system: HL-60(TB) leukemia
[5] = test system: A549 NSCLC
[6] = test system: HCT-116 colon
[7] = test system: NCI-H460 lung
[8] = test system: TK-10 renal
[9] = test system: U251 CNS
[10] = test system: SK-MEL-28 melanoma

SMILES	GI50 [1] [µM]	TGI [1] [µM]	GI50 [2] [µM]	TGI [2] [µM]	GI50 [3] [µM]	TGI [3]	GI50 [4] [µM]	TGI [4] [µM]	GI50 [5] [µM]	TGI [5]	GI50 [6] [µM]	TGI [6]	GI50 [7] [µM]	TGI [7]	GI50 [8] [µM]	TGI [8] [µM]	GI50 [9] [µM]	TGI [9]	GI50 [10] [µM]	TGI [10] [µM]
CN(C)c1ccc(/C=C/c2cc[n+](C)c(/C=C/c3ccc(N(C)C)cc3)c2)cc1	0.27	1.39	0.273	1.15	0.194	1.21 µM	0.19	0.873	0.334	10.6 µM	0.278	1.24 µM	0.343	1.72 µM	0.374	2.86	0.286	1.41 µM	0.667	2.7
NCCCNCCCCNC(=O)C(O)NC(=O)CCCCCCN=C(N)N (centres undefined)	> 5000	> 5000	2040	> 5000	2330	750 µM and > 5000 µM	2500	> 4090	1640	750 µM and > 5000 µM	1830	750 µM and > 4790 µM	> 2770	750 µM and > 5000 µM	> 4030	> 5000	2080	636 µM and > 4540 µM	> 3670	> 5000
CCCCCCCc1cc2c3c(nc4ccccc42)C(=O)c2cccnc2-c3n1	15.3	28.6	4.81	10.8	10.8	25.6 µM	1.42		2.46	11.9 µM	0.375	3.35 µM	1.05	3.1 µM	2.4	4.41	2.96	8.05 µM	5.75	11
Cc1ccc(O)c(NC(=O)c2ccc(CNc3ccnc(C(F)(F)F)c3)cc2)c1	3.87	36.7	4.23	> 100	10.6	53.3 µM	1.21	14.8	12.9	> 100 µM	13.7	37.4 µM	3.7	21.9 µM	10.8	40.1	23.5	> 100 µM	13.8	39.9
CC(=O)OCc1cc2ccccc2nc1C(Br)(Br)Br		86.6		26.3		29.8 µM		40.9		31.2 µM		31.6 µM		33.8 µM		36.7		28.1 µM		42.6
O=c1c(-c2ccccc2)coc2cc(OC/C(=N/O)c3ccccc3)ccc12	25.9	88.5	18	39.9	> 100	> 100 µM	21.3	95.9	3.62	25.2 µM	11.2	68.6 µM	11	26.9 µM	13.1	38.4	21.4	56.1 µM	28.8	> 100
CC(=O)OCC1OC(n2c(-c3ccc(C)cc3)cc(-c3ccccc3)c(C#N)c2=O)C(OC(C)=O)C(OC(C)=O)C1OC(C)=O (centres undefined)		> 100		> 100		> 100 µM		> 100		> 100 µM		> 100 µM		> 100 µM		> 100		> 100 µM		> 100
O=C1c2ccccc2S(=O)(=O)c2cc(-c3nn[nH]n3)ccc21		> 100		> 100		> 100 µM		> 100		> 100 µM		> 100 µM		> 100 µM		> 100		> 100 µM		> 100
CCN1CCC(O)(c2ccc(Cl)cc2)C(C(=O)c2ccc(Cl)cc2)C1 (centres undefined)		> 100		> 100		> 100 µM		> 100		> 100 µM		> 100 µM		> 100 µM		> 100		> 100 µM		> 100
O=C1C(=O)c2cccnc2-c2ncccc21	1.16	2.98	0.25	0.848	0.319	1.3 µM	0.18	0.443	1.04	2.8 µM	0.0401	0.159 µM	0.0678	0.774 µM	1.24	2.6	0.131	0.674 µM	0.472	1.8
COc1cccc(NC(=O)/C(Cc2nc3ccccc3nc2C)=N/NC(=O)C[n+]2ccccc2)c1		> 100		> 100		> 100 µM		> 100		> 100 µM		> 100 µM		> 100 µM		> 100		39.8 µM		> 100
O=c1c(O)c(-c2cc(O)c(O)c(O)c2)oc2cc(O)cc(O)c12		> 100		[…]		35.4 µM		> 100		> 100 µM		34.1 µM		39.1 µM		> 100		32.8 µM		> 100
C=C1C(=O)O[C@H]2[C@H]1CC/C(Cn1cc(-c3ccccc3C(F)(F)F)nn1)=C\CC[C@@]1(C)O[C@@H]21	17.3	31.2	2.48	7.46	1.75	3.57 µM	2.58	10.1	7.23	21.8 µM	1.26	2.74 µM	3.97	17.7 µM	1.71	3.2	1.83	3.83 µM	1.75	3.47
Cn1cc2ccccc2c1-c1nc(F)nc(OCC(=O)[C@H]2CCC3[C@@H]4CCC5=CC(=O)CC[C@]5(C)C4[C@@H](O)C[C@@]32C)n1 (some centres undefined)		37.3		30.8		16.5 µM		25.3		> 77.8 µM		27 µM		52.2 µM		47.9		36 µM		31.2
OCC#Cc1ccccc1C#CCCCCCC#Cc1ccccc1C#CCO	31	> 100	19.2	33.6	18.4	33.6 µM	18.8	41.8	19.2	45.3 µM	12.7	25.2 µM	17.4	34 µM	27.1	76.8	20.9	36 µM	29	> 100
